Broadly, the Ki is the equilibrium dissociation constant of an inhibitor or competing ligand from its target. A low value points to tighter binding.

From ChEMBL document CHEMBL4017527, “Are We There Yet? Applying Thermodynamic and Kinetic Profiling on Embryonic Ectoderm Development (EED) Hit-to-Lead Program” (J Med Chem, 2017) come the findings set out here.

For experiment [1], the target named is T1, Polycomb protein EED (Homo sapiens, UniProt O75530). Briefly: Binding affinity to GST tagged EED (unknown origin) after 1 hr by OG(488) probe based TR-FRET assay. (In general: TR-FRET usually uses a lanthanide donor and a delayed reading to cut background.)
For experiment [2], the target named is T1, Polycomb protein EED. The experiment in a line: Binding affinity to His tagged human EED (77 to 441 residues) expressed in Escherichia coli BL21(DE3)-T1R by ITC method. To be noted: read-out: Kd(app).
In experiment [3] the target is T1, Polycomb protein EED. The experiment in a line: Binding affinity to biotin labelled human EED (78 to 441 residues) by SPR assay. In general terms: In SPR one partner is held on a chip, and binding of the other changes the refractive index at the surface.

T1 sequence (O75530 whole entry, the tested form may be a part): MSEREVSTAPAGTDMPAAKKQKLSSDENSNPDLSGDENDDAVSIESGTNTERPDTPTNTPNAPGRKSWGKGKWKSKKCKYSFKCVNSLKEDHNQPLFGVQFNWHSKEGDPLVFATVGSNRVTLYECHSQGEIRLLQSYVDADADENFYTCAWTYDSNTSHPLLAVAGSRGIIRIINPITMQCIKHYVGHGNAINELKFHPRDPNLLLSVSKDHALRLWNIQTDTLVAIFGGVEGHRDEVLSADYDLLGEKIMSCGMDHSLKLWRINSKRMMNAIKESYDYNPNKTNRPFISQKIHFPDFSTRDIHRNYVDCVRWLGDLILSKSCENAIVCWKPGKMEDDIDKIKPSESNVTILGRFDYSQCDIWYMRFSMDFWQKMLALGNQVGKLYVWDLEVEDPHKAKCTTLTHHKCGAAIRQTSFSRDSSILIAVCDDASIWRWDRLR

Consider `CC(=O)N1CCN(c2ccc([C@H]3CN(C4CCc5cccc(F)c54)C[C@@H]3N(C)C)cc2)CC1` (some centres not stated), for which affinity at Polycomb protein EED [1] was put at a Ki of 0.0007 µM. The Kd worked out at 2.1 µM at Polycomb protein EED [2] and 0.004 µM at Polycomb protein EED [3].
In turn, `c1ccc2c(c1)CCN(c1ccncc1)C2` registered a Ki at Polycomb protein EED [1] of 0.95 µM. For the same compound, the Kd at Polycomb protein EED [2] came to 5.2 µM; at Polycomb protein EED [3], 22 µM.
On to `CN(C)[C@H]1CN(Cc2c(F)cc(O)cc2Br)C[C@@H]1c1cn(C)c2ccccc12`, for which, on Polycomb protein EED [1], the affinity corresponds to a Ki of 0.008 µM. At Polycomb protein EED [3], this compound gave a Kd of 0.061 µM.
Turning to `COc1ccccc1N1CCN(C(=O)c2ccccc2S(C)(=O)=O)CC1`, the inhibition constant (Ki) on Polycomb protein EED [1] is 1.5 µM. This compound also displayed a Kd at Polycomb protein EED [3] of 13.4 µM.
The matching figures for `COc1ccc([C@H]2CN(C3CCc4cccc(F)c43)C[C@@H]2N(C)C)cc1OC` (some centres not stated): 0.003 µM and 0.043 µM.
In the case of `CC(=O)N1CCN(c2ccc([C@H]3CN([C@@H]4CCc5cccc(F)c54)C[C@@H]3N(C)C)cc2)CC1`, the affinity on Polycomb protein EED [1], expressed as Ki, was 0.003 µM. In addition, the Kd at Polycomb protein EED [2] amounted to 1.14 µM; on Polycomb protein EED [3], 0.1 µM.
In the same order, the values of `Cc1cccc(F)c1CN1C[C@@H](N(C)C)[C@H](c2ccc(S(C)(=O)=O)cc2)C1` are 0.29 µM, 0.94 µM and 1.4 µM.
In turn, `CN(C)c1cc(N2CCc3ccccc3C2)ccn1` displayed a Ki on Polycomb protein EED [1] of 0.68 µM. Also, the Kd on Polycomb protein EED [2] was 2.5 µM.
Turning to `CN(C)[C@H]1CN(Cc2c(F)cccc2Br)C[C@@H]1c1cn(C)c2ccccc12`, the Ki on Polycomb protein EED [1] lay in the range of 0.01 to 0.02 µM. In addition, the Kd was 0.09 µM on Polycomb protein EED [2] and 0.15 to 0.31 µM at Polycomb protein EED [3].
`CN(C)[C@H]1CN(Cc2c(F)cccc2Br)C[C@@H]1c1ccccn1` gave a Ki on Polycomb protein EED [1] of 0.45 µM. The compound also showed a Kd at Polycomb protein EED [3] of 9.8 µM.
With `COc1ccc([C@H]2CN(Cc3c(F)cccc3Br)C[C@@H]2N(C)C)cc1OC`, the Ki on Polycomb protein EED [1] amounted to 0.018 µM. In addition, the Kd at Polycomb protein EED [3] was determined as 0.3 µM.
With `Cc1cccc(F)c1CN1C[C@H](c2ccc(S(C)(=O)=O)cc2)[C@@H](N(C)C)C1`, at Polycomb protein EED [1], the affinity corresponds to a Ki of 0.01 µM. Also, the Kd came out at 0.03 µM on Polycomb protein EED [2] and 0.14 µM on Polycomb protein EED [3].
In the same order, the values of `CC(=O)N1CCN(c2ccc([C@@H]3CN([C@H]4CCc5cccc(F)c54)C[C@H]3N(C)C)cc2)CC1` are 0.042 µM, 2.2 µM and 0.29 µM.
Consider `CC(=O)N1CCN(c2ccc([C@H]3CN(Cc4c(C)cccc4F)C[C@@H]3N(C)C)cc2)CC1`, for which affinity on Polycomb protein EED [1] was put at a Ki of 0.003 µM. The compound further displayed a Kd on Polycomb protein EED [3] of 0.02 µM.
Take `CN(C)[C@@H]1CN(Cc2c(F)cccc2Br)C[C@H]1c1cn(C)c2ccccc12`: the affinity at Polycomb protein EED [1] corresponds to a Ki of 0.08 µM. Further, the figures for the Kd at Polycomb protein EED [2] and on Polycomb protein EED [3] were 0.37 µM and 3.1 µM, respectively.
With `COc1ccc([C@H]2CN(Cc3c(C)cccc3F)C[C@@H]2N(C)C)cc1OC`, on Polycomb protein EED [1], affinity was put at a Ki of 0.012 µM. Further, the Kd on Polycomb protein EED [3] came out at 0.21 µM.
On Polycomb protein EED [1], `CC(=O)N1CCN(c2ccc([C@@H]3CN([C@@H]4CCc5cccc(F)c54)C[C@H]3N(C)C)cc2)CC1` registered an inhibition constant (Ki) of 0.018 µM. Also, the Kd on Polycomb protein EED [2] was 0.11 µM; on Polycomb protein EED [3] it was 0.2 µM.
Regarding `Cc1cccc(F)c1CN1C[C@H](c2cn(C)c3ccccc23)[C@@H](N(C)C)C1`, the Kd on Polycomb protein EED [2] came out at 0.006 µM.
`CN(C)[C@H]1CN(Cc2c(F)cccc2Br)C[C@@H]1c1ccccc1` had a Ki on Polycomb protein EED [1] of 0.11 µM. For the same compound, the Kd on Polycomb protein EED [3] worked out at 4.8 µM.
`CN(C)[C@H]1CN(Cc2c(F)cccc2Br)C[C@@H]1c1ccc(O)cc1` registered an inhibition constant (Ki) at Polycomb protein EED [1] of 0.091 µM. Further, the Kd on Polycomb protein EED [3] came to 2.6 µM.
Compound `CC(=O)N1CCN(c2ccc([C@H]3CN([C@H]4CCc5cccc(F)c54)C[C@@H]3N(C)C)cc2)CC1` yielded a Ki on Polycomb protein EED [1] of 0.0003 µM. The values for the Kd on Polycomb protein EED [2] and at Polycomb protein EED [3] were 0.01 µM and 0.001 µM, respectively.
Regarding `CN(C)[C@H]1CN([C@H]2CCc3cccc(F)c32)C[C@@H]1c1cn(C)c2ccccc12`, the Kd at Polycomb protein EED [2] amounted to 0.01 µM.
